pKi: −log10 of the molar value. Values joined by “and” are separate entries in the source; they are usually repeats but may differ in a detail not shown here. Identical values can stand only once. Like-named read-outs stand apart in the source and are kept apart here. A value given as a limit tells only on which side of the number the result lay.

The target of series [1] is T1, S1R (Homo sapiens, UniProt Q99720).
T1 construct: host or cells: Jurkat cell membranes
Description: S1R binding assay, [3H](+)-pentazocine, Jurkat cell membranes. How it is done:
The binding assays were performed by Eurofins Cerep (Poitiers, France) according to Ganapathy. Briefly, S1R)binding assay was carried out by incubating Jurkat cell membranes ([…] protein per tube) with [^3H] (+)-pentazocine (15 nM) and a range of concentrations of test compounds at 37 °C for 2 h in 5 mM Tris HCl buffer (pH = 7.4). The S2R binding assay was performed by incubating Jurkat cell membranes ([…] protein per tube) with [^3H]-DTG (25 nM) in the presence of (+)-pentazocine (1 mM), to saturate S1R, and a range of concentrations of test compounds at room temperature for 1 h in 5 mM Tris HCl buffer (pH = 7.4). Bound radioactivity was measured using liquid scintillation counting. Nonspecific binding was determined in both assays, under similar conditions, as remaining in the presence of […] unlabeled haloperidol. Inhibition constants (Ki) were calculated from the IC50 values according to the method of Cheng and Prusoff.

Series [2] can be described thus: Pharmacokinetic study in plasma and brain. Type of series: in vivo, male C57BL/6 mice. Conditions: 1 mg/kg; for Brain/Plasma / Kp at 0.5 h: at 30 min; for Brain AUC t^∞/AUC ∞: unit assumed; for Kp at 0.5 h / Tmax / half-life / concentration at 30 min / bioavailability: male, C57BL/6, mouse. How it is done:
A pharmacokinetic (PK) study was performed by Eurofins Cerep (Poitiers, France) in male C57BL/6 mice (20–30 g) following i.v. and p.o. administrations of compound 7i at 1 mg/kg.
The plasma and perfused brain samples were collected at 0, 30, 60, 120, 240 and 280 min after treatment administration (n = 3 animal/time point). Animals were terminated under inhalant CO2 euthanasia. Blood was collected via cardiac puncture. Aliquots were collected in tubes coated with lithium heparin and centrifuged. The plasma was harvested and kept frozen at −70 °C until further processing. Immediately following the collection of the blood sample, animals were perfused with heparinized saline (10 IU/mL). The brain was collected, rinsed with saline to remove residual blood, weighed and stored at −70 °C until further analysis.
Plasma samples were processed using acetonitrile precipitation and analyzed by LC-MS/MS. A plasma calibration curve was generated. Aliquots of drug-free plasma were spiked with compound 7i at the specified concentration levels. The spiked plasma samples were processed together with the unknown plasma samples using the same procedure.
Each brain was homogenized for 10 s on ice in a proper volume of cold phosphate-buffered saline (PBS) at pH 7.4. The homogenate was centrifuged at 5400× g for 15 min at 4 °C. Supernatants were subsequently processed using acetonitrile precipitation and analyzed by LC-MS/MS. A brain calibration curve was generated. Aliquots of drug-free brain homogenate were spiked with compound 7i at the specified concentration levels. The spiked brain homogenate samples were processed together with the unknown brain homogenate samples using the same procedure.
Concentrations of compound 7i in the unknown plasma and brain samples were determined using the respective calibration curve. The reportable linear range of the assay was determined, along with the lower limit of quantitation (LLQ).
The exposure levels of compound 7i in the plasma and brain samples as determined by LC-MS/MS were reported (ng/mL). The [brain]/[plasma] ratios were calculated.
Pharmacokinetic modeling was performed using the non-compartmental method based on statistical moments. In this method, exchanges between kinetic spaces are expressed in time. The curves were obtained using R software (Package ggplot2, v3.3.6).

Series [3] addresses T1, S1R. Further details: method as in PMID 28756263. Conditions: selectivity index; cited from earlier work.
The subject of the next series is SH-SY5Y. Further details: method as in PMID 28756263. The following applies: cited from earlier work.

T1 sequence (Q99720 whole entry): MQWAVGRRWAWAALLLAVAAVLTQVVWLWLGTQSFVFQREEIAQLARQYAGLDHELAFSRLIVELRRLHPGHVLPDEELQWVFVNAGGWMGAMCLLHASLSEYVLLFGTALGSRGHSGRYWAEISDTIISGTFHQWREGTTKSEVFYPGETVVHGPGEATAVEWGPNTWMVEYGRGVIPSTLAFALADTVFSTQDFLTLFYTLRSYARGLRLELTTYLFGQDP

For the compound `O=C(NCCCNCc1ccccc1)c1ccc(Cl)cc1` [compound 7i-deMe], the negative-log Ki (pKi) (in general, the Ki on a negative log10 scale, so that one unit is a factor of ten) at S1R [1] is 7.64.

Consider `CN(CCCNC(=O)c1ccc(Cl)cc1)Cc1ccccc1` [compound 7i], for which the “increase of total clearance, p.o. versus i.v.” value in series [2] is given as 20 times. In addition, the “C30 after i.v. relative to p.o.” value in series [2] (in the plasma or in the brain) is given as “more than 10 times”. The CLT stood at 3.8 mL/min in series [2] (i.v.) and 74.9 mL/min in series [2] (p.o.). Moreover, the CLbrain turned out to be 1.8 mL/min in series [2] (i.v.) and 12.8 mL/min in series [2] (p.o.). The “D (diffusion in the brain)” value in series [2] (i.v.) was 62% and 61.7%. The MAT in series [2] (i.v.) is 0 min; in series [2] (p.o.), 16.5 min. In addition, the “Plasma AUC t^∞/AUC ∞” value in series [2] (i.v.) is listed as 0.9; in series [2] (p.o.) it was 6.1. The results for the Brain/Plasma in series [2] (i.v.) and in series [2] (p.o.) were 2.9 and 3.2, respectively. For the same compound, the Brain AUC t^∞/AUC ∞ was determined as 5.9% in series [2] (i.v., brain) and 7.6% in series [2] (p.o., brain). Besides, in series [2] (i.v., mouse plasma, simulated), the “Plasma Cmax (simulated)” value is recorded as 180 ng/mL. In addition, the partition ratio (Kp) (commonly tissue or fluid exposure divided by exposure in the circulation) at 0.5 h in series [2] (brain, iv) worked out at 3; in series [2] (brain, po) it was 3. For the same compound, the Tmax (in general, the time at which the peak concentration occurs) in series [2] (brain, iv, i.v., brain, read-out: Brain tmax) was not above 30 min; in series [2] (brain, po, p.o., brain, read-out: Brain tmax), not above 30 min; in series [2] (plasma, iv, i.v., mouse plasma, read-out: Plasma tmax), 0 min; in series [2] (plasma, po, p.o., mouse plasma, read-out: Plasma tmax), less than 30 min. Besides, the half-life in series [2] (brain, iv, read-out: Brain t1/2 el) was 96.4 min; in series [2] (brain, po, read-out: Brain t1/2 el) it was 78.9 min; in series [2] (plasma, iv, read-out: Plasma t1/2 el), 44.5 min; in series [2] (plasma, po, read-out: Plasma t1/2 el) it was 25.5 min. The concentration at 30 min in series [2] (iv, brain, read-out: Brain C30) turned out to be 234 ng/mL; in series [2] (plasma, iv, read-out: Plasma C30) it was 79.8 ng/mL; in series [2] (plasma, po, read-out: Plasma C30), 6.4 ng/mL; in series [2] (po, brain, read-out: Brain C30), 20.7 ng/mL. The bioavailability (in general, dose-corrected exposure relative to a reference, in per cent) in series [2] (plasma, iv) came out at 100%; in series [2] (plasma, po), 5%. Further, in series [2] (p.o.), the Vd was 0.168 L/kg. Further, the “Ki Ratio S2R/S1R” value on S1R [3] was 60. The “Inhibition SH-SY5Y (% at 100 µM)” value in the series with SH-SY5Y (100 µM) is 28%. Further, in the series on SH-SY5Y, the cytotoxicity result is “no cytotoxicity”.

The record behind these values is article PMC9569529, “Safe and Efficient Sigma1 Ligand: A Potential Drug Candidate for Multiple Sclerosis” (International Journal of Molecular Sciences, 2022).
